Experimental data reported in patent US10392348B2, “2-oxo-3,4-dihydroquinoline compounds as plant growth regulators” (Syngenta Participations AG, priority 2015, dated 2019).
Like-named read-outs stand apart in the source and are kept apart here. Each block holds one compound with its values, some of them ahead of it.

Columns and labels:
[1] = tested on: soybean plants (variety S20-G7); test: Reduced plant water use in soybean (foliar spray, repeated weighing of pots); type: in vivo; details: Glycine max, foliar, Table B1, sprayed at 500 μM, vs negative control
Summary of the method: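 Daytime water use was tracked by weighing pots of 12-day-old soybean after foliar spray of compound formulated as EC plus EXTRAVON 1 g/20 L. Cumulative total (0-2.5 DAA) sums a.m. and p.m. readings; values baseline-adjusted by covariance analysis against formulation-only negative control.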

[2] = tested on: corn plants (variety NK OCTET); test: Reduced plant water use in corn (foliar spray, repeated weighing of pots); type: in vivo; details: Zea mays, corn plants sprayed at 500 μM, average of 6 pots
Summary of the method: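 Water use was summed over 0–2.5 days after application, from repeated day-time weighings of pots and corrected by ANCOVA for pre-application baseline. Plants, 12 days old, received foliar EC sprays diluted with water plus 0.4% rape seed methyl ester adjuvant.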

[3] = 0 h, 0 DAA a.m. (10:30-12:50), read-out: % WU 0 DAA AM
[4] = 24 h, 1 DAA a.m. (7:30-12:50), read-out: % WU 1DAA AM
[5] = 24 h, 1 DAA p.m. (14:00-19:50), read-out: % WU 1DAA PM
[6] = 48 h, 2 DAA a.m. (07:30-12:50), read-out: % WU 2 DAA AM
[7] = 48 h, 2 DAA p.m. (14:00-19:50), read-out: % WU 2 DAA PM
[8] = 60 h, cumulative total WU (0-2.5 DAA), read-out: % WU Total 0 to 2.5 DAA
[9] = 0 h, water use during day time vs negative control, 0 DAA a.m. (10:30-12:50), read-out: % WU 0 DAA AM
[10] = 0 h, water use during day time vs negative control, 0 DAA p.m. (14:00-19:50), read-out: % WU 0DAA PM
[11] = 24 h, water use during day time vs negative control, 1 DAA a.m. (07:30-12:50), read-out: % WU 1DAA AM
[12] = 24 h, water use during day time vs negative control, 1 DAA p.m. (14:00-19:50), read-out: % WU 1DAA PM
[13] = 48 h, water use during day time vs negative control, 2 DAA a.m. (07:30-12:50), read-out: % WU 2 DAA AM
[14] = 48 h, water use during day time vs negative control, 2 DAA p.m. (14:00-19:50), read-out: % WU 2 DAA PM
[15] = 60 h, cumulative total water use 0-2.5 DAA (sum of the time points) vs negative control, read-out: % WU Total 0 to 2.5 DAA

melting point: 143 to 145 °C
Structure (SMILES): CCCN1C(=O)CCc2cc(CNS(=O)(=O)c3ccc(Br)cc3)ccc21 [Compound 3.002, 4-bromo-N-[(2-oxo-1-propyl-3,4-dihydroquinolin-6-yl)methyl]benzenesulfonamide]
change in vivo at 500 µM [1, 3]: -22.5%
change in vivo at 500 µM [1, 4]: -13.7%
change in vivo at 500 µM [1, 5]: -9.4%
change in vivo at 500 µM [1, 6]: -6.7%
change in vivo at 500 µM [1, 7]: -4.7%
change in vivo at 500 µM [1, 8]: -11.4%
change in vivo at 500 µM [2, 9]: -16.3%
change in vivo at 500 µM [2, 10]: -12.2%
change in vivo at 500 µM [2, 11]: -13.4%
change in vivo at 500 µM [2, 12]: -10.5%
change in vivo at 500 µM [2, 13]: -9.5%
change in vivo at 500 µM [2, 14]: -7%
change in vivo at 500 µM [2, 15]: -10.9%

melting point: 182 to 183 °C
Structure (SMILES): CCCN1C(=O)CCc2cc(CNS(=O)(=O)c3c(F)cccc3F)ccc21 [Compound 3.005, 2,6-difluoro-N-[(2-oxo-1-propyl-3,4-dihydroquinolin-6-yl)methyl]benzenesulfonamide]
change in vivo at 500 µM [1, 3]: -37.5%
change in vivo at 500 µM [1, 4]: -24.9%
change in vivo at 500 µM [1, 5]: -21.9%
change in vivo at 500 µM [1, 6]: -12.9%
change in vivo at 500 µM [1, 7]: -12%
change in vivo at 500 µM [1, 8]: -21.9%
change in vivo at 500 µM [2, 9]: -16.2%
change in vivo at 500 µM [2, 10]: -10.5%
change in vivo at 500 µM [2, 11]: -9.2%
change in vivo at 500 µM [2, 12]: -7.9%
change in vivo at 500 µM [2, 13]: -5.4%
change in vivo at 500 µM [2, 14]: -5.3%
change in vivo at 500 µM [2, 15]: -8.2%

melting point: 141 to 144 °C
Structure (SMILES): CCCN1C(=O)CCc2cc(CNS(=O)(=O)c3ccc(F)cc3F)ccc21 [Compound 3.006, 2,4-difluoro-N-[(2-oxo-1-propyl-3,4-dihydroquinolin-6-yl)methyl]benzenesulfonamide]
change in vivo at 500 µM [1, 3]: -36.5%
change in vivo at 500 µM [1, 4]: -28.3%
change in vivo at 500 µM [1, 5]: -24.2%
change in vivo at 500 µM [1, 6]: -17.8%
change in vivo at 500 µM [1, 7]: -14.9%
change in vivo at 500 µM [1, 8]: -24.5%
change in vivo at 500 µM [2, 9]: -18%
change in vivo at 500 µM [2, 10]: -14.1%
change in vivo at 500 µM [2, 11]: -12.6%
change in vivo at 500 µM [2, 12]: -10.2%
change in vivo at 500 µM [2, 13]: -6.6%
change in vivo at 500 µM [2, 14]: -5.7%
change in vivo at 500 µM [2, 15]: -10.3%

melting point: 155 to 156 °C
Structure (SMILES): CCCN1C(=O)CCc2cc(CNS(=O)(=O)c3ccccc3F)ccc21 [Compound 3.007, 2-fluoro-N-[(2-oxo-1-propyl-3,4-dihydroquinolin-6-yl)methyl]benzenesulfonamide]
change in vivo at 500 µM [1, 3]: -16.1%
change in vivo at 500 µM [1, 4]: -12.7%
change in vivo at 500 µM [1, 5]: -9.7%
change in vivo at 500 µM [1, 6]: -7.7%
change in vivo at 500 µM [1, 7]: -7.6%
change in vivo at 500 µM [1, 8]: -10.8%
change in vivo at 500 µM [2, 9]: -16%
change in vivo at 500 µM [2, 10]: -12%
change in vivo at 500 µM [2, 11]: -11.4%
change in vivo at 500 µM [2, 12]: -9.5%
change in vivo at 500 µM [2, 13]: -6.6%
change in vivo at 500 µM [2, 14]: -5.9%
change in vivo at 500 µM [2, 15]: -9.4%

The remaining lines, values behind:

Structure (SMILES): CCN1C(=O)CCc2cc(CNS(=O)(=O)c3ccc(Br)cc3)ccc21 [Compound 2.002, 4-bromo-N-[(1-ethyl-2-oxo-3,4-dihydroquinolin-6-yl)methyl]benzenesulfonamide]
change in vivo at 500 µM [1, 3]: -10.4%
change in vivo at 500 µM [1, 4]: -6.5%
change in vivo at 500 µM [1, 5]: -4%
change in vivo at 500 µM [1, 6]: -5.6%
change in vivo at 500 µM [1, 7]: -4.2%
change in vivo at 500 µM [1, 8]: -5.8%
change in vivo at 500 µM [2, 9]: -10.8%
change in vivo at 500 µM [2, 10]: -3.6%
change in vivo at 500 µM [2, 11]: -3.2%
change in vivo at 500 µM [2, 12]: -3.9%
change in vivo at 500 µM [2, 13]: -1.2%
change in vivo at 500 µM [2, 14]: -1.7%
change in vivo at 500 µM [2, 15]: -3.2%
melting point: 176 to 183 °C

Structure (SMILES): CCN1C(=O)CCc2cc(CNS(=O)(=O)c3ccc(F)cc3F)ccc21 [Compound 2.006, N-[(1-ethyl-2-oxo-3,4-dihydroquinolin-6-yl)methyl]-2,4-difluoro-benzenesulfonamide]
change in vivo at 500 µM [1, 3]: -23.4%
change in vivo at 500 µM [1, 4]: -13.8%
change in vivo at 500 µM [1, 5]: -13%
change in vivo at 500 µM [1, 6]: -10.4%
change in vivo at 500 µM [1, 7]: -7.3%
change in vivo at 500 µM [1, 8]: -13.2%
change in vivo at 500 µM [2, 9]: -12.5%
change in vivo at 500 µM [2, 10]: -6.7%
change in vivo at 500 µM [2, 11]: -6.5%
change in vivo at 500 µM [2, 12]: -5.5%
change in vivo at 500 µM [2, 13]: -3%
change in vivo at 500 µM [2, 14]: -3.2%
change in vivo at 500 µM [2, 15]: -5.4%
melting point: 167 to 168 °C

Structure (SMILES): CCN1C(=O)CCc2cc(CNS(=O)(=O)c3ccc(C)s3)ccc21 [Compound 2.061, N-[(1-ethyl-2-oxo-3,4-dihydroquinolin-6-yl)methyl]-5-methyl-thiophene-2-sulfonamide]
change in vivo at 500 µM [1, 3]: -50.4%
change in vivo at 500 µM [1, 4]: -7.9%
change in vivo at 500 µM [1, 5]: -2.2%
change in vivo at 500 µM [1, 6]: -0.5%
change in vivo at 500 µM [1, 7]: -1.2%
change in vivo at 500 µM [1, 8]: -13.7%
change in vivo at 500 µM [2, 9]: -18.8%
change in vivo at 500 µM [2, 10]: -10.8%
change in vivo at 500 µM [2, 11]: -7.5%
change in vivo at 500 µM [2, 12]: -2.8%
change in vivo at 500 µM [2, 13]: -1.6%
change in vivo at 500 µM [2, 14]: -0.8%
change in vivo at 500 µM [2, 15]: -6.2%
melting point: 149 to 152 °C

Structure (SMILES): CCN1C(=O)CCc2cc(CNS(=O)(=O)c3ccsc3)ccc21 [Compound 2.068, N-[(1-ethyl-2-oxo-3,4-dihydroquinolin-6-yl)methyl]thiophene-3-sulfonamide]
change in vivo at 500 µM [1, 3]: -27%
change in vivo at 500 µM [1, 4]: -18.1%
change in vivo at 500 µM [1, 5]: -14.7%
change in vivo at 500 µM [1, 6]: -11.6%
change in vivo at 500 µM [1, 7]: -7.5%
change in vivo at 500 µM [1, 8]: -15.3%
change in vivo at 500 µM [2, 9]: -16.6%
change in vivo at 500 µM [2, 10]: -15.1%
change in vivo at 500 µM [2, 11]: -12.9%
change in vivo at 500 µM [2, 12]: -11.4%
change in vivo at 500 µM [2, 13]: -9.2%
change in vivo at 500 µM [2, 14]: -9.1%
change in vivo at 500 µM [2, 15]: -11.8%
melting point: 128 to 131 °C
